Source: article PMC10144242, “Design, Synthesis, In Vitro, and In Silico Insights of 5-(Substituted benzylidene)-2-phenylthiazol-4(5H)-one Derivatives: A Novel Class of Anti-Melanogenic Compounds” (Molecules, 2023)

Tests used:
[1] = target: mushroom tyrosinase (Agaricus bisporus, UniProt C7FF04); experiment: Kinetic studies on mushroom tyrosinase inhibition (Lineweaver–Burk and Dixon plots, L-DOPA substrate); format: biochemical; parameters: purchased Sigma-Aldrich; details: for Ki: Dixon plots, read-out: Ki (inhibition constant); for Inhibition type: Lineweaver–Burk plot
Sequence of mushroom tyrosinase (C7FF04 1-392 limits assumed): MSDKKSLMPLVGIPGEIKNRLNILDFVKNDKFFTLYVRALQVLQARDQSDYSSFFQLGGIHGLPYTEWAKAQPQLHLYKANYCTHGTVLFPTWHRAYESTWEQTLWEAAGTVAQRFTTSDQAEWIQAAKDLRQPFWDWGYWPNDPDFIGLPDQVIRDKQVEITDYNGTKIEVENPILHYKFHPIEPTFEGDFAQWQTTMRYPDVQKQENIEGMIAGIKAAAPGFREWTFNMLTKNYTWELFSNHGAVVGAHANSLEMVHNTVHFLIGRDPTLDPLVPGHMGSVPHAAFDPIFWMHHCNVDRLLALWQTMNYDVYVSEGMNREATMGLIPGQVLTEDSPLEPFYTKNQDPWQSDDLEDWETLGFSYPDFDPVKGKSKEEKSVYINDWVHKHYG
Method: As depicted in Figure 2, the mechanisms of tyrosinase inhibition were analyzed using Lineweaver–Burk plots. […] Each of the four straight lines produced at each inhibitor concentration converged to a single point on the y-axis. […] In contrast, in derivative 3, four straight lines generated at each inhibitor concentration intersected at a point in the second quadrant. According to the Lineweaver–Burk plot, as the inhibitor concentration increased, the Vmax value of 3 decreased, but the KM value increased.
To determine the Ki (inhibition constant) values of (Z)-BPT derivatives 1–3, Lineweaver–Burk plots for 1–3 were transformed into the corresponding Dixon plots (Figure 3). Each Dixon plot obtained from each Lineweaver–Burk plot produced four straight lines that intersected at one point in the second quadrant. The vertical lines from the merge point to the x-axis provide the Ki value of each (Z)-BPT derivative.
To determine the mode of action, Lineweaver–Burk plots of (Z)-BPT derivatives 1–3 were acquired. In brief, 10 µL of (Z)-BPT derivatives 1–3 (final concentrations:0, 3, 6, or 12 µM for 1; 0, 0.05, 0.1, or 0.2 µM for 2; 0, 2.5, 5, or 10 µM for 3) was added to a 96-well plate containing a substrate mixture (170 µL) consisting of an aqueous solution of L-dopa at final concentrations of 0.5, 1.0, 2.0, or 4.0 mM and 14.7 mM potassium phosphate buffer (pH 6.5), and a mushroom tyrosinase aqueous solution (20 µL, 20 units). Using a microplate reader (VersaMax^TM, Molecular Devices, Sunnyvale, CA, USA) to measure the increase in absorbance at a wavelength of 492 nm (ΔOD492/min), the initial rate of dopachrome synthesis in the reaction mixture was estimated. Using five different concentrations of L-dopa, Lineweaver–Burk plots (inverse of the response rate (1/V) vs. inverse of L-dopa concentration (1/(S)) were created. The convergence points of the four plot lines were used to define the mode of action of tyrosinase inhibition.
Figure 2 Lineweaver–Burk plots for the inhibition of mushroom tyrosinase activity by (Z)-BPT derivatives 1–3. […] Three independent experiments with five different concentrations (0.5, 1, 2, 4, and 8 mM) of an L-DOPA substrate were used to measure the augmented dopachrome optical density per minute at 492 nm. The data are shown as mean values of 1/V (an inverse of that optical density per minute). The (Z)-BPT derivatives were used at concentrations of 0 (filled circles), 3 (unfilled circles), 6 (filled triangles), and 12 µM (unfilled triangles) for 1; 0 (filled circles), 0.05 (unfilled circles), 0.1 (filled triangles), and 0.2 µM (unfilled triangles) for 2; and 0 (filled circles), 2.5 (unfilled circles), 5 (filled triangles), and 10 µM (unfilled triangles) for 3. Each experiment was run independently in triplicates.
Figure 3 Dixon plots for the inhibition of mushroom tyrosinase activity by (Z)-BPT derivatives 1–3. The Ki values of (Z)-BPT derivatives 1–3 were obtained from the absolute values of the x-coordinate where four straight lines converged at one point. Three independent experiments with four different concentrations of (Z)-BPT derivatives were conducted to measure the augmented dopachrome optical density per minute at 492 nm. The data are shown as the mean values of 1/V (an inverse of that optical density per minute). The (Z)-BPT derivatives were used at concentrations of 0, 3, 6, and 12 µM for 1; 0, 0.05, 0.1, and 0.2 µM for 2; and 0, 2.5, 5, and 10 µM for 3. The experiments were performed at four different concentrations (0.5, 1, 2, and 4 mM) of L-DOPA. Each experiment was run independently in triplicates.

[2] = system: B16F10 cells; experiment: Melanin content (anti-melanogenesis) assay in IBMX/α-MSH-stimulated cells; format: cell-based, murine; details: 72 h; for effect on cellular melanin content: B16F10, 20 µM, IBMX + α-MSH; for effect on cellular melanin content increased by stimulators: B16F10, 5, 10, 20 µM, IBMX 200 µM + α-MSH 1 µM
Method: Cells were exposed to four different concentrations (0, 5, 10, and 20 µM) of 1 and 2 prior to treatment with stimulators (3-isobutyl-1-methylxanthine (IBMX, 200 µM), and α-melanocyte stimulating hormone (α-MSH, 1 µM)). After 72 h of incubation, the effects of 1 and 2 on melanin production were determined. Cellular melanin levels were assessed by measuring melanin levels in cell lysates.
The melanin content assay standard procedure was used to investigate the anti-melanogenic effect of (Z)-BPT derivatives 1 and 2 with a few minor modifications. Briefly, B16F10 melanoma cells were seeded in each well of a 6-well plate at a density of 1 × 10^5 cells/well and allowed to adhere to the well bottom under conditions that were identical to those used for cell culture. […] For 72 h, B16F10 cells were incubated at 37 °C in a humid environment containing 5% CO2 after being treated with IBMX and α-MSH. To determine the intracellular melanin content, B16F10 cells stimulated with IBMX and α-MSH for 72 h were rinsed twice with PBS and incubated in 200 µL 1N-NaOH solution including 10% dimethyl sulfoxide (DMSO) at 60 °C. The cell lysates were transferred to a 96-well plate after an hour of incubation, and the absorbance of the melanin content was calculated using a VersaMax^TM microplate reader (Molecular Devices, Sunnyvale, CA, USA) to determine intracellular melanin levels. Each experiment was performed independently in triplicates.
Figure 7 Effects of (Z)-BPT derivatives 1 and 2 on cellular melanin levels in B16F10 cells. […] (A) Derivative 1 and (B) derivative 2.

Structure (SMILES) | Ki [1] [µM] | Inhibition type [1] | effect on cellular melanin content [2] | effect on cellular melanin content increased by stimulators [2]
O=C1N=C(c2ccccc2)S/C1=C\c1ccc(O)cc1 [Compound 1, (Z)-5-(4-Hydroxybenzylidene)-2-phenylthiazol-4(5H)-one] | 8.89 | Competitive | more effectively than kojic acid | significantly and dose-dependently diminished
O=C1N=C(c2ccccc2)S/C1=C\c1ccc(O)cc1O [Compound 2, (Z)-5-(2,4-Dihydroxybenzylidene)-2-phenylthiazol-4(5H)-one] | 0.1 | Competitive | below those of the non-treated control | significantly and dose-dependently diminished
